Converted amounts (≈) assume the structure as drawn.

The conditions of the data set: buffer; pH 7.4; 200.0 µM.
For `CN1CCN(c2ccc(C(F)(F)F)cc2NC(=O)c2ccco2)CC1`, the kinetic solubility (usually solubility judged after dilution from a stock solution rather than from solid) is above 53 µg/mL.
In the case of `COc1ccc(Cl)cc1NC(=S)Nc1cccnc1` it was 38.1 µg/mL (≈ 130 µM); in that of `NC(=O)c1cc(S(=O)(=O)N2CCCCC2)cs1`, above 41.2 µg/mL.
The compound `O=C(CN1C(=O)NC2(CCOc3ccccc32)C1=O)NCCc1ccc(F)cc1` (stereo not drawn) yielded a kinetic solubility above 59.6 µg/mL.
`Br.CCc1ccc(C2=CSC3=NCCN23)cc1` gave a kinetic solubility above 46.7 µg/mL.
In the case of `Cc1ccc(Nc2cc(C)nc3c(C)cccc23)cc1` it was 35 µg/mL (≈ 133 µM); in that of `OC1CCCCC1N1CCC(c2ccccc2)CC1` (stereo not drawn), above 38.9 µg/mL; in that of `O=C(NC1CCCCC1)C1CCCN1S(=O)(=O)c1ccc(F)cc1` (stereo not drawn), 8 µg/mL (≈ 22.6 µM).
In turn, `Cc1ccccc1NCCC(=O)Nc1ccc(F)cc1` yielded a kinetic solubility above 40.8 µg/mL.
With `COc1ccc(NC(=O)CN2C(=O)COc3ccccc32)cc1OC`, the solubility (kinetic) amounted to 3 µg/mL (≈ 8.76 µM).
In the case of `Cc1ccc2c(C(=O)CN3CCC(C(N)=O)CC3)c(C)[nH]c2c1` it was above 47 µg/mL; in that of `CCCCOc1ccc(CN2CCSCC2)cc1`, 14.1 µg/mL (≈ 53.1 µM).
Under `CSCCC(NC(=O)c1ccco1)C(=O)NCCc1ccc(Cl)cc1` (stereo not drawn) stands 19.6 µg/mL (≈ 51.5 µM).
Take `Cc1ccc(NC(=S)N2CCCCC2CO)cc1C` (stereo not drawn): the solubility (kinetic) was above 41.8 µg/mL.
In the case of `CC(C)N1CCN(Cc2ccsc2)CC1CCO` (stereo not drawn) it was above 40.3 µg/mL; in that of `CC(=O)Nc1ccc(C(=O)Nc2cc(C)on2)cc1`, above 38.9 µg/mL.
`Cc1ccc(N2C(=O)c3ccccc3C2=O)cc1` came in with a kinetic solubility of 2.7 µg/mL (≈ 11.4 µM).
`COc1ccccc1CC(=O)Nc1ccc(F)cc1F` came in with a solubility (kinetic) above 41.6 µg/mL.
The compound `O=C(Nc1ccc(Nc2ccccc2)cc1)c1c(Cl)cccc1Cl` returned a kinetic solubility of 1.2 µg/mL (≈ 3.36 µM).
In the case of `CCc1noc(C)c1C(=O)OCC(=O)Nc1cccc(C)c1` it was 20.4 µg/mL (≈ 67.5 µM); in that of `CCOC(=O)c1ccccc1NC(=S)N1CCC(C(N)=O)CC1`, 41.6 µg/mL (≈ 124 µM).
Under `N=c1oc2cc(O)ccc2cc1C(=O)Nc1ccc(F)cc1` stands 1.5 µg/mL (≈ 5.03 µM); under `COC(=O)c1ccc(N2C(=O)C3C4C=CC(CC4)C3C2=O)cc1` (stereo not drawn), 20.1 µg/mL (≈ 64.6 µM); under `O=C(CCl)Nc1nccs1`, above 26.5 µg/mL.
Under `O=C(O)C1=C(Nc2ccccc2)OCC1=O` stands above 32.9 µg/mL; under `Cc1cc(OC(=O)N(C)C)nc(SCc2c(Cl)cccc2Cl)n1`, 6.5 µg/mL (≈ 17.5 µM).
The compound `COc1ccc(Cl)cc1C(=O)Nc1cccnc1` showed a solubility (kinetic) of 22.1 µg/mL (≈ 84.1 µM).
On to `Cc1ccc(C(=O)Nc2ncc([N+](=O)[O-])s2)cc1`, for which the solubility (kinetic) was found to be 27 µg/mL (≈ 103 µM).
Turning to `Cc1cccc(NC(=O)Nc2ccccc2[N+](=O)[O-])n1`, the solubility (kinetic) is 0.3 µg/mL (≈ 1.1 µM).
`O=S(=O)(NCc1ccco1)c1ccc(Cl)s1` returned a kinetic solubility above 41.7 µg/mL.
In turn, `Cc1cccc(NC(=O)c2ccc(NCCO)c([N+](=O)[O-])c2)n1` registered a kinetic solubility of 3.4 µg/mL (≈ 10.7 µM).
Under `CC1CC(C)(C)NC(=S)N1CCCC(=O)NCc1ccccc1` (stereo not drawn) stands above 50 µg/mL; under `COc1ccc(Cl)cc1S(=O)(=O)Nc1noc2ccccc12`, 47 µg/mL (≈ 139 µM).
Under `O=C1CCCN1C(=O)COc1cc(F)ccc1[N+](=O)[O-]` stands above 42.3 µg/mL; under `Cc1ccc(-c2noc(CCCC(=O)NC3CCCC3)n2)cc1`, 44 µg/mL (≈ 140 µM).
In the case of `CCCSc1nc2sc3c(c2c(=O)n1CC)CC(C)(C)OC3` it was below 0.4 µg/mL.
In turn, `Cc1nc(Nc2ccccc2)sc1C(=O)c1ccccc1` returned a kinetic solubility of 2.1 µg/mL (≈ 7.13 µM).
In the case of `O=C(NCC(=O)N1CCCC(C(F)(F)F)C1)c1ccco1` (stereo not drawn) it was above 45.6 µg/mL; in that of `COc1cccc(Nc2nc(C)cc(C)c2C(N)=O)c1`, above 40.7 µg/mL; in that of `Cc1ccc(C(=O)NC2CC(C)(C)NC(C)(C)C2)cc1`, 40.2 µg/mL (≈ 146 µM).
Compound `C=CCn1cc(C(=O)OCC)c(=O)c2cc(F)c(F)cc21` had a kinetic solubility above 44 µg/mL.
`Cc1ccc(CC(=O)Nc2ccc(Cl)cn2)cc1` gave a solubility (kinetic) of 8.4 µg/mL (≈ 32.2 µM).
Consider `COc1ccc(-c2ccccc2)cc1NC(=O)c1cccs1`, for which the kinetic solubility was 1.2 µg/mL (≈ 3.88 µM).
Under `O=C(O)c1ccc(Nc2ccc([N+](=O)[O-])c3nonc23)cc1` stands above 45 µg/mL.
In the case of `Clc1ncn(CCOc2ccccc2)c1Cl`, the kinetic solubility came to 38.2 µg/mL (≈ 149 µM).
Under `O=C(CNC(=O)COc1ccccc1)NCc1cccnc1` stands above 44.9 µg/mL; under `CC(C)c1ccc(CN2C(=O)NC3(CCCCCC3)C2=O)cc1`, below 0.3 µg/mL; under `Cc1cccc(NC(=O)CCCn2c(=S)[nH]c3ccccc3c2=O)c1`, 0.3 µg/mL (≈ 0.849 µM).
Compound `CCCN1C(=O)c2ccccc2NC1c1ccc(O)c(OCC)c1` (stereo not drawn) returned a kinetic solubility above 49 µg/mL.
Under `CCOc1cccc(C(=O)N/N=C/c2ccoc2)c1` stands above 38.7 µg/mL; under `CC1(C)Cc2cccc(OCC(=O)NCc3ccccc3)c2O1`, above 46.7 µg/mL.
With `O=S(=O)(/C=C/c1cccc(Br)c1)N1CCOCC1`, the kinetic solubility came out at 40 µg/mL (≈ 120 µM).
In the case of `CNC(=O)NC(=O)Cn1cnc2sc(-c3ccccc3)cc2c1=O` it was 0.4 µg/mL (≈ 1.17 µM).

For the origin of these results see PubChem BioAssay AID1996.
